Measurements from PubChem BioAssay AID330 (DTP/NCI, 2004).
Where “and” joins values, the source holds several entries; their conditions need not be identical. Identical values can stand only once. Toxic doses and inconclusive results are not listed. Rule for the calls: active = survival T/C of 150% or more; inactive = T/C below 125% in these data.

System: P388 leukemia ip, CD2F1 mice, survival T/C
Test: NCI In Vivo Anticancer Drug Screen. Data for tumor model P388 Leukemia (intraperitoneal) in CD2F1 (CDF1) mice
Conditions: endpoint: median survival time, higher = longer survival
How it was run: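 Mice carrying the transplanted tumor received test compound or vehicle. Survival was recorded in each group, and the value is the treated-group measurement divided by that of the vehicle-treated control group.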

[1] = dose: 50.0 mg/kg/injection, schedule: Q01DX005 (ip), vehicle: saline with Tween-80
[2] = dose: 100.0 mg/kg/injection, schedule: Q01DX005 (ip), vehicle: saline with Tween-80
[3] = dose: 60.0 mg/kg/injection, schedule: Q01DX005 (ip), vehicle: saline with Tween-80
[4] = dose: 120.0 mg/kg/injection, schedule: Q01DX005 (ip), vehicle: saline with Tween-80
[5] = dose: 50.0 mg/kg/injection, schedule: Q01DX005 (ip), vehicle: Klucel (hydroxypropylcellulose) (HPC)
[6] = dose: 100.0 mg/kg/injection, schedule: Q01DX005 (ip), vehicle: Klucel (hydroxypropylcellulose) (HPC)
[7] = dose: 100.0 mg/kg/injection, schedule: Q04DX003 (ip), vehicle: saline
[8] = dose: 200.0 mg/kg/injection, schedule: Q04DX003 (ip), vehicle: saline
[9] = dose: 400.0 mg/kg/injection, schedule: Q04DX003 (ip), vehicle: saline
[10] = dose: 60.0 mg/kg/injection, schedule: Q01DX005 (ip), vehicle: saline
[11] = dose: 120.0 mg/kg/injection, schedule: Q01DX005 (ip), vehicle: saline
[12] = dose: 200.0 mg/kg/injection, schedule: Q01DX005 (ip), vehicle: Klucel (hydroxypropylcellulose) (HPC)

Measured: T/C

c1ccc2c(c1)-c1ccccc1C1NC21 (centres undefined)
inactive: dose: 12.5 mg/kg/injection, schedule: Q01DX001 (ip), vehicle: saline with Tween-80 99 % of control and 110 % of control | dose: 25.0 mg/kg/injection, schedule: Q01DX001 (ip), vehicle: saline with Tween-80 105 % of control and 110 % of control and 123 % of control | dose: 50.0 mg/kg/injection, schedule: Q01DX001 (ip), vehicle: saline with Tween-80 113 % of control | [1] 112 % of control | dose: 100.0 mg/kg/injection, schedule: Q01DX001 (ip), vehicle: saline with Tween-80 113 % of control | [2] 110 % of control | dose: 200.0 mg/kg/injection, schedule: Q01DX005 (ip), vehicle: saline with Tween-80 119 % of control

CC1=COC2CCCCC2O1 (centres undefined) (tested in a mixture with another compound)
inactive: dose: 25.0 mg/kg/injection, schedule: Q01DX009 (ip), vehicle: acetone 111 % of control | dose: 50.0 mg/kg/injection, schedule: Q01DX009 (ip), vehicle: acetone 105 % of control

N=C1N=Nc2nc(C(C(=O)c3ccc(O)cc3O)c3nc4n(c3O)C(=N)N=N4)c(O)n21 (centres undefined)
inactive: [3] 100 % of control | [4] 104 % of control | dose: 240.0 mg/kg/injection, schedule: Q01DX005 (ip), vehicle: saline with Tween-80 103 % of control

O=c1[nH]c2n[nH]c(=S)n2c2c1CCCC2
inactive: dose: 50.0 mg/kg/injection, schedule: Q04DX002 (ip), vehicle: saline with Tween-80 99 % of control | dose: 100.0 mg/kg/injection, schedule: Q04DX002 (ip), vehicle: saline with Tween-80 97 % of control | dose: 200.0 mg/kg/injection, schedule: Q04DX002 (ip), vehicle: saline with Tween-80 99 % of control

COC(=O)[C@H]1[C@H]2C[C@@H]3c4[nH]c5cc(OC)ccc5c4CCN3C[C@H]2C[C@@H](OC(=O)c2cccc(N(C)C)c2)[C@@H]1OC
inactive: dose: 12.5 mg/kg/injection, schedule: Q01DX005 (ip), vehicle: Klucel (hydroxypropylcellulose) (HPC) 95 % of control | dose: 25.0 mg/kg/injection, schedule: Q01DX005 (ip), vehicle: Klucel (hydroxypropylcellulose) (HPC) 94 % of control | [5] 116 % of control | [6] 86 % of control

C=C1C(=O)O[C@H]2[C@H]1C[C@@H](O)[C@@]1(C)[C@@H](OC(=O)/C(C)=C/C)C[C@@H]3O[C@]3(C)[C@H]21
inactive: dose: 9.0 mg/kg/injection, schedule: Q01DX005 (ip), vehicle: Klucel + Tween-80 105 % of control | dose: 18.0 mg/kg/injection, schedule: Q01DX005 (ip), vehicle: Klucel + Tween-80 106 % of control | dose: 36.0 mg/kg/injection, schedule: Q01DX005 (ip), vehicle: Klucel + Tween-80 105 % of control | dose: 72.0 mg/kg/injection, schedule: Q01DX005 (ip), vehicle: Klucel + Tween-80 110 % of control

Cn1c(=O)c2c(nc(/N=C/c3ccco3)n2C)n(C)c1=O
inactive: [7] 91 % of control | [8] 90 % of control | [9] 92 % of control

CC1(C)OC2OC(C3CSC(=S=O)S3)C(O)C2O1 (centres undefined)
inactive: dose: 12.5 mg/kg/injection, schedule: Q01DX005 (ip), vehicle: Klucel + Tween-80 95 % of control | dose: 25.0 mg/kg/injection, schedule: Q01DX005 (ip), vehicle: Klucel + Tween-80 100 % of control | dose: 50.0 mg/kg/injection, schedule: Q01DX005 (ip), vehicle: Klucel + Tween-80 103 % of control

Cc1cc(-c2c(C)[nH]n(-c3nc4ccc(F)cc4s3)c2=O)n(-c2nc3ccc(F)cc3s2)n1
inactive: dose: 15.0 mg/kg/injection, schedule: Q01DX005 (ip), vehicle: saline with Tween-80 96 % of control | dose: 30.0 mg/kg/injection, schedule: Q01DX005 (ip), vehicle: saline with Tween-80 95 % of control | [3] 100 % of control and 92 % of control

Nc1ccc2nc3c(N)ccc(N)c3nc2c1
inactive: dose: 3.75 mg/kg/injection, schedule: Q01DX005 (ip), vehicle: saline 100 % of control and 103 % of control | dose: 7.5 mg/kg/injection, schedule: Q01DX005 (ip), vehicle: saline 100 % of control and 105 % of control | dose: 15.0 mg/kg/injection, schedule: Q01DX005 (ip), vehicle: saline 100 % of control and 109 % of control | dose: 30.0 mg/kg/injection, schedule: Q01DX005 (ip), vehicle: saline 111 % of control and 116 % of control | [10] 116 % of control | [11] 118 % of control

c1ccc(-c2cnn3c(-c4ccccc4)cnnc23)cc1
inactive: [5] 99 % of control | [6] 99 % of control | [12] 99 % of control

Cn1c(C(=O)N/N=C/C23OC(C)(C)OC2OCC2OC(C)(C)OC23)cc2cc(OCc3ccccc3)ccc21 (centres undefined)
inactive: [5] 92 % of control | [6] 101 % of control | [12] 90 % of control

Nc1nc(N)c2nc(CNc3ccc(C(=O)NC(CCC(=O)O)C(=O)O)cc3F)cnc2n1 (centres undefined)
active: dose: 1.87 mg/kg/injection, schedule: Q01DX005 (ip), vehicle: saline with Tween-80 163 % of control | dose: 7.5 mg/kg/injection, schedule: Q01DX005 (ip), vehicle: saline with Tween-80 183 % of control

COc1cc([N+](=O)[O-])cc2c1OC1(N=C2)Sc2ccccc2N1C (centres undefined)
inactive: dose: 100.0 mg/kg/injection, schedule: Q01DX001 (ip), vehicle: saline 103 % of control | dose: 200.0 mg/kg/injection, schedule: Q01DX001 (ip), vehicle: saline 100 % of control | dose: 400.0 mg/kg/injection, schedule: Q01DX001 (ip), vehicle: saline 103 % of control

O=NNc1ncccc1OCc1ccccc1
inactive: dose: 12.5 mg/kg/injection, schedule: Q01DX009 (ip), vehicle: water 111 % of control and 112 % of control

CC(=O)NC1=C(Cl)C(=O)c2ccccc2C1=O
inactive: dose: 0.78 mg/kg/injection, schedule: Q01DX009 (ip), vehicle: Klucel (hydroxypropylcellulose) (HPC) 98 % of control | dose: 1.56 mg/kg/injection, schedule: Q01DX009 (ip), vehicle: Klucel (hydroxypropylcellulose) (HPC) 100 % of control | dose: 3.13 mg/kg/injection, schedule: Q01DX009 (ip), vehicle: Klucel (hydroxypropylcellulose) (HPC) 107 % of control | dose: 6.25 mg/kg/injection, schedule: Q01DX009 (ip), vehicle: Klucel (hydroxypropylcellulose) (HPC) 104 % of control and 88 % of control

CC(=O)Sc1nnc2c3ccccc3n(C(C)=O)c2n1
inactive: [7] 99 % of control | [8] 97 % of control | [9] 105 % of control

O=c1oc2c(ccc3c(O)cccc32)c2c1CCCC2
inactive: [5] 105 % of control | [6] 102 % of control | [12] 93 % of control

CCN(CC)CCN1C(=O)c2cccc3cc(OC)cc(c23)C1=O
inactive: dose: 25.0 mg/kg/injection, schedule: Q01DX005 (ip), vehicle: saline 104 % of control | dose: 50.0 mg/kg/injection, schedule: Q01DX005 (ip), vehicle: saline 100 % of control | dose: 100.0 mg/kg/injection, schedule: Q01DX005 (ip), vehicle: saline 107 % of control

C=CCCN=C(SC)SC
inactive: [3] 104 % of control | [4] 114 % of control

C1=C(c2ccccc2)C(c2ccc(OCCN3CCCCC3)cc2)Oc2ccccc21 (centres undefined)
inactive: [1] 92 % of control | [2] 86 % of control

C[N+](C)(C)NP(=O)(N[N+](C)(C)C)Oc1ccccc1
inactive: [10] 100 % of control and 110 % of control and 93 % of control | [11] 103 % of control and 110 % of control (2×) | dose: 240.0 mg/kg/injection, schedule: Q01DX005 (ip), vehicle: saline 100 % of control and 104 % of control | dose: 480.0 mg/kg/injection, schedule: Q01DX005 (ip), vehicle: saline 104 % of control and 95 % of control

ClCc1ccccc1CCl
inactive: dose: 5.0 mg/kg/injection, schedule: Q04DX003 (ip), vehicle: saline with Tween-80 106 % of control | dose: 10.0 mg/kg/injection, schedule: Q04DX003 (ip), vehicle: saline with Tween-80 94 % of control | dose: 20.0 mg/kg/injection, schedule: Q04DX003 (ip), vehicle: saline with Tween-80 100 % of control | dose: 40.0 mg/kg/injection, schedule: Q04DX003 (ip), vehicle: saline with Tween-80 117 % of control

O=C1c2ccccc2OC2CCON12 (centres undefined)
inactive: dose: 50.0 mg/kg/injection, schedule: Q01DX009 (ip), vehicle: Klucel (hydroxypropylcellulose) (HPC) 100 % of control | dose: 100.0 mg/kg/injection, schedule: Q01DX009 (ip), vehicle: Klucel (hydroxypropylcellulose) (HPC) 100 % of control | dose: 200.0 mg/kg/injection, schedule: Q01DX009 (ip), vehicle: Klucel (hydroxypropylcellulose) (HPC) 116 % of control

O=C(O)CCCCCSCCCCCCSCCCCCC(=O)O
inactive: [5] 102 % of control | [6] 105 % of control | [12] 100 % of control

COc1ccc(C(SCC(N)C(=O)O)(c2ccccc2)c2ccc(OC)cc2)cc1 (centres undefined)
active: dose: 33.0 mg/kg/injection, schedule: Q04DX003 (ip), vehicle: saline 185 % of control | dose: 50.0 mg/kg/injection, schedule: Q04DX003 (ip), vehicle: saline 165 % of control
inactive: dose: 75.0 mg/kg/injection, schedule: Q04DX003 (ip), vehicle: saline 90 % of control
